Among the data in patent publication US20240279278A1, “NMU RECEPTOR 2 AGONISTS” (Boehringer Ingelheim International GmbH, priority 2023, published 2024) are solubility, EC50 and Ki values, retold here.

The nature of data set [1]: physchem. The class given is physicochemical. The gist of the method:
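Peptide TFA salts were shaken at a nominal 10 mg/mL in 0.1 M phosphate buffer, pH 6 to 8, for 2 h at room temperature and then filtered. Reversed-phase HPLC peak area was compared with a 1 mg/mL control in buffer or DMSO to give solubility. The pH of each sample was recorded.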

For data set [2], the target named is human NMUR2 receptor (Homo sapiens, UniProt Q9GZQ4). Nature of the data set: IP1 Gq HTRF assay, activation of human NMUR2 in human plasma. On the set-up: expressed in transfected cells; host or cells: CHO-K1. The following applies: CHO-K1 cells expressing human NMUR2, 100% human plasma; read-out: EC50 (hNMUR2) human plasma. The class given is cell-based. The gist of the method: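 CHO-K1 cells stably expressing human NMUR2 exposed to peptide agonists (8-point dose-response) in 100% human plasma with 50 mM LiCl, 1% DMSO, for 1 h at 37° C. IP1 accumulation read by HTRF competition (665/620 nm ratio). EC50 from 4-parameter sigmoidal fit.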

In data set [3] the target is T1, human NMUR1 receptor (Homo sapiens, UniProt Q9HB89).
T1 construct: host or cells: CHO-K1
T1 sequence (Q9HB89 24-426 limits assumed): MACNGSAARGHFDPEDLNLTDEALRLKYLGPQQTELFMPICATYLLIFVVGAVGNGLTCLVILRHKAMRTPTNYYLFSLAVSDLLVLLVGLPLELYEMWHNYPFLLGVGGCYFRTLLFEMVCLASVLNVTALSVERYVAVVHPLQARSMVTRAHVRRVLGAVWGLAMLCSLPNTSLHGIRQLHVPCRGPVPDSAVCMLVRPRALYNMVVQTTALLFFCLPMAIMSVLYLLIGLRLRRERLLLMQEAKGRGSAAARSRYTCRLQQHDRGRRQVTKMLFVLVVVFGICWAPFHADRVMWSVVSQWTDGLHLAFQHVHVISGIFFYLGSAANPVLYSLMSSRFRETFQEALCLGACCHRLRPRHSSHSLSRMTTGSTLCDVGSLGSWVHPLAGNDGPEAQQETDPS
Nature of the data set: Radioligand binding competition assay (RLB), human NMUR1 receptor binding (SPA, [125I]-Neuromedin U-25). The following applies: CHO-K1 hNMUR1 cell membranes, 4 hours at RT. An excerpt: Example 2: Radioligand Binding Competition Assay (RLB) Human NMUR1 Receptor Binding 1) Membranes The test is based on membranes prepared from a human NMUR1/Apoaequorin Stable Cell Line (Creative Biogene, Cat. No. CSC-RG1308). Cell Line Description: CHO-NMUR1 cell line is clonally-derived from a CHO-K1 cell line, which has been transfected with a bicistronic expression plasmid containing the sequence coding for the human neuromedin U receptor 1 (NM_006056.4, 180 to 1391). Mosaic-ID: CL16550614 Membrane preparation: Cells were broken by nitrogen cavitation (900 psi, 1 hour). Intact cells were removed by centrifugation (400 rcf, 10 minutes, 4° C.) before the crude membrane fraction was collected by ultracentrifugation (20.000 rcf, 1 hour, 4° C.). 2) Human NMUR1 Receptor Binding Assay (Radioligand: [125l]-Neuromedin U-25) In this Scintillation Proximity Assay (SPA) design, the membranes immobilize directly to the PVT-WGA-PEI type A beads (polyethyleneimine treated polyvinyltoluene beads coupled to wheatgerm agglutinin, Perkin Elmer) via interactions of wheat germ agglutinate and glycosylated membrane structures. Thereby the radioactively la-belled ligand, bound to NMUR1 receptors on the membrane, comes in close proximity to the solid scintillator of the PVT bead. Radioactive human neuromedin U-25 then stimulates the scintillant to emit light. In contrast, radioligand not bound to the receptor is too distant from the bead to elicit a signal. For the Scintillation Proximity Assay the CHO-K1 hNMUR1 cell membranes and SPA-beads are diluted to concentrations, which assure a robust signal to background ratio. The SPA incubation buffer consists of 25 mM Hepes (pH=7.0), 5 mM MgCl2, 1 mM CaCl2, 10 ug/mL Saponine and 0.1% bovine serum albumin and is used for all dilutions. Final assay setup in 96-well plate: 20 μL of 10× test compound dilutions+40 μL of 5× [125l]-Neuromedin U-25 (1× approx. 30 pM; 2000 μCi/mmol (μCi=microcurie))+60 μL membrane dilution (approx. 1.0 μg membrane protein)+80 μL SPA bead dilution (250 μg). The assay is incubated for 4 hours at RT, including controls for specific binding where no displacer is added and non-specific binding by adding unlabeled hNMU-25 at 100 nM. Bound radioactivity is determined by scintillation counting (MicroBeta Trilux 1450, Perkin Elmer, detection of 125I decay). […] The system assumes one binding site with no relevant radioligand depletion (<10%) and that the binding is reversible and at equilibrium. [formula] [formula]

Converted amounts (≈) assume the structure as drawn. Residues, ends and D or L forms follow the SMILES beside them.

Sequence of human NMUR2 receptor (Q9GZQ4 whole entry): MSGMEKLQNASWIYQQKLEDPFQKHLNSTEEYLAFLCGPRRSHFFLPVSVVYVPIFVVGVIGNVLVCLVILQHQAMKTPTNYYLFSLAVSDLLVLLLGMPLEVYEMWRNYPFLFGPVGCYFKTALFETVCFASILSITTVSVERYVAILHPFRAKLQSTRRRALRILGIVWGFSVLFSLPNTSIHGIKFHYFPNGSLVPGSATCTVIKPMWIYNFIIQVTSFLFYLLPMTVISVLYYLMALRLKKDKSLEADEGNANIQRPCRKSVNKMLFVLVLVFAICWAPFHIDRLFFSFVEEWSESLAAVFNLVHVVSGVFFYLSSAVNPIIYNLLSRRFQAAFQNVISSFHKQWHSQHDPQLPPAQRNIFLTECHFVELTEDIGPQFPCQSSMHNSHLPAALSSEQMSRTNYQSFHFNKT

As for `CCCC[C@H](NC(=O)[C@H](CC(C)C)N(C)C(=O)[C@H](Cc1ccccc1)NC(=O)[C@H](Cc1ccc(O)cc1)NC(=O)CN1CCN(CCNC(=O)CN(C)C(=O)CN(C)C(=O)CN(C)C(=O)CN(C)C(=O)CN(C)C(=O)CN(C)C(=O)CN(C)C(=O)CN(C)C(=O)CN(C)C(=O)CN(C)C(=O)CN(C)C(=O)CN(C)C(=O)CC[C@H](NC(=O)CC[C@H](NC(=O)CC[C@H](NC(=O)CCCCCCCCCCCCCCCCCCC(=O)O)C(=O)O)C(=O)O)C(=O)O)CC1)C(=O)N[C@@H](CCCNC(=N)N)C(=O)N1CCC[C@H]1C(=O)N[C@@H](CCCNC(=N)N)C(=O)NCC(N)=O` [Compound 6, C20DA-gGlu3-Sar12-AEPipAc-Tyr-Phe-NMeLeu-Nle-Arg-Pro-Arg-Gly-NH2], the concentration in solution in data set [1] (pH 7.2) (solubility at 2 h) was 4600 µg/mL (≈ 1660 µM). Also, in data set [2], the EC50 was 6.9 nM. This compound also registered a Ki in data set [3] greater than 10000 nM.
`CCCC[C@H](NC(=O)[C@H](CC(C)C)N(C)C(=O)[C@H](Cc1ccccc1)NC(=O)[C@H](Cc1ccc(O)cc1)NC(=O)CN1CCN(CCNC(=O)CN(C)C(=O)CN(C)C(=O)CN(C)C(=O)CN(C)C(=O)CN(C)C(=O)CN(C)C(=O)CN(C)C(=O)CN(C)C(=O)CN(C)C(=O)CN(C)C(=O)CN(C)C(=O)CN(C)C(=O)CN(C)C(=O)CN(C)C(=O)CN(C)C(=O)CC[C@H](NC(=O)CC[C@H](NC(=O)CC[C@H](NC(=O)CCCCCCCCCCCCCCCCC(=O)O)C(=O)O)C(=O)O)C(=O)O)CC1)C(=O)N[C@@H](CCCNC(=N)N)C(=O)N1CCC[C@H]1C(=O)N[C@@H](CCCNC(=N)N)C(=O)NCC(N)=O` [Compound 7, C18DA-gGlu3-Sar15-AEPipAc-Tyr-Phe-NMeLeu-Nle-Arg-Pro-Arg-Gly-NH2] (HELM PEPTIDE1{[O=C(O)CCCCCCCCCCCCCCCCC(=O)[*:2]].[gGlu].[gGlu].[gGlu].[Sar].[Sar].[Sar].[Sar].[Sar].[Sar].[Sar].[Sar].[Sar].[Sar].[Sar].[Sar].[Sar].[Sar].[Sar].[O=C(CN1CCN(CCN[*:1])CC1)[*:2]].Y.F.[meL].[Nle].R.P.R.G.[am]}$$$$V2.0): in data set [1] (pH 7), the solubility at 2 h turned out to be 7000 µg/mL (≈ 2370 µM). Further, in data set [2], the EC50 stood at 4.4 nM. The affinity in data set [3], expressed as Ki, was 3740 nM.
Consider `CCCC[C@H](NC(=O)[C@H](CC(C)C)N(C)C(=O)[C@H](Cc1ccccc1)NC(=O)[C@H](Cc1ccc(O)cc1)NC(=O)CN1CCN(CCNC(=O)CN(C)C(=O)CN(C)C(=O)CN(C)C(=O)CN(C)C(=O)CN(C)C(=O)CN(C)C(=O)CN(C)C(=O)CN(C)C(=O)CN(C)C(=O)CN(C)C(=O)CN(C)C(=O)CN(C)C(=O)CC[C@H](NC(=O)CC[C@H](NC(=O)CC[C@H](NC(=O)CCCCCCCCCCCCCCCCCCC(=O)O)C(=O)O)C(=O)O)C(=O)O)CC1)C(=O)N[C@@H](CCN)C(=O)N1CCC[C@H]1C(=O)N[C@@H](CCCNC(=N)N)C(=O)NCC(N)=O` [Compound 8, C20DA-gGlu3-Sar12-AEPipAc-Tyr-Phe-NMeLeu-Nle-Dbu-Pro-Arg-Gly-NH2], for which, in data set [1] (pH 7.3), the solubility at 2 h came to 1900 µg/mL (≈ 701 µM). Besides, the EC50 in data set [2] was 9 nM. This compound gave an inhibition constant (Ki) in data set [3] greater than 10000 nM.
`CCCC[C@H](NC(=O)[C@H](CC(C)C)N(C)C(=O)[C@H](Cc1ccccc1)NC(=O)[C@H](Cc1ccc(O)cc1)NC(=O)CN1CCN(CCNC(=O)CN(C)C(=O)CN(C)C(=O)CN(C)C(=O)CN(C)C(=O)CN(C)C(=O)CN(C)C(=O)CN(C)C(=O)CN(C)C(=O)CN(C)C(=O)CN(C)C(=O)CN(C)C(=O)CN(C)C(=O)CC[C@H](NC(=O)CC[C@H](NC(=O)CC[C@H](NC(=O)CCCCCCCCCCCCCCCCC(=O)O)C(=O)O)C(=O)O)C(=O)O)CC1)C(=O)N[C@@H](CCCN)C(=O)N(C)[C@@H](C)C(=O)N[C@@H](CCCNC(=N)N)C(=O)NCC(N)=O` [Compound 20, C18DA-gGlu3-Sar12-AEPipAc-Tyr-Phe-NMeLeu-Nle-Orn-NMeAla-Arg-Gly-NH2] returned a solubility at 2 h in data set [1] (pH 7.2) of 8400 µg/mL (≈ 3130 µM). Further, in data set [2], the half-maximal effective concentration (EC50) was 12.1 nM. Besides, in data set [3], the Ki is greater than 10000 nM.
`CCCC[C@H](NC(=O)[C@H](CC(C)C)N(C)C(=O)[C@H](Cc1ccccc1)NC(=O)[C@H](Cc1ccc(O)cc1)NC(=O)CN1CCN(CCNC(=O)CN(C)C(=O)CN(C)C(=O)CN(C)C(=O)CN(C)C(=O)CN(C)C(=O)CN(C)C(=O)CN(C)C(=O)CN(C)C(=O)CN(C)C(=O)CN(C)C(=O)CN(C)C(=O)CN(C)C(=O)CN(C)C(=O)CN(C)C(=O)CN(C)C(=O)CC[C@H](NC(=O)CC[C@H](NC(=O)CC[C@H](NC(=O)CCCCCCCCCCCCCCCCC(=O)O)C(=O)O)C(=O)O)C(=O)O)CC1)C(=O)N[C@@H](CCCN)C(=O)N1CCC[C@H]1C(=O)N[C@@H](CCCNC(=N)N)C(=O)NCC(N)=O` [Compound 21, C18DA-gGlu3-Sar15-AEPipAc-Tyr-Phe-NMeLeu-Nle-Orn-Pro-Arg-Gly-NH2] (HELM PEPTIDE1{[O=C(O)CCCCCCCCCCCCCCCCC(=O)[*:2]].[gGlu].[gGlu].[gGlu].[Sar].[Sar].[Sar].[Sar].[Sar].[Sar].[Sar].[Sar].[Sar].[Sar].[Sar].[Sar].[Sar].[Sar].[Sar].[O=C(CN1CCN(CCN[*:1])CC1)[*:2]].Y.F.[meL].[Nle].[Orn].P.R.G.[am]}$$$$V2.0) gave a solubility at 2 h in data set [1] (pH 7.3) of 7500 µg/mL (≈ 2580 µM). Besides, the EC50 in data set [2] came out at 8.7 nM. The same compound showed a Ki in data set [3] greater than 10000 nM.
On to `CCCC[C@H](NC(=O)[C@H](CC(C)C)N(C)C(=O)[C@H](Cc1ccccc1)NC(=O)[C@H](Cc1ccc(O)cc1)NC(=O)CN1CCN(CCNC(=O)CN(C)C(=O)CN(C)C(=O)CN(C)C(=O)CN(C)C(=O)CN(C)C(=O)CN(C)C(=O)CN(C)C(=O)CN(C)C(=O)CN(C)C(=O)CN(C)C(=O)CN(C)C(=O)CN(C)C(=O)CN(C)C(=O)CN(C)C(=O)CN(C)C(=O)CC[C@H](NC(=O)CC[C@H](NC(=O)CC[C@H](NC(=O)CCCCCCCCCCCCCCCCC(=O)O)C(=O)O)C(=O)O)C(=O)O)CC1)C(=O)N[C@@H](CCCN)C(=O)N(C)[C@@H](C)C(=O)N[C@@H](CCCNC(=N)N)C(=O)NCC(N)=O` [Compound 22, C18DA-gGlu3-Sar15-AEPipAc-Tyr-Phe-NMeLeu-Nle-Orn-NMeAla-Arg-Gly-NH2] (HELM PEPTIDE1{[O=C(O)CCCCCCCCCCCCCCCCC(=O)[*:2]].[gGlu].[gGlu].[gGlu].[Sar].[Sar].[Sar].[Sar].[Sar].[Sar].[Sar].[Sar].[Sar].[Sar].[Sar].[Sar].[Sar].[Sar].[Sar].[O=C(CN1CCN(CCN[*:1])CC1)[*:2]].Y.F.[meL].[Nle].[Orn].[meA].R.G.[am]}$$$$V2.0), for which, in data set [1] (pH 7.3), the concentration in solution (solubility at 2 h) was 8600 µg/mL (≈ 2970 µM). The concentration giving a half-maximal response (EC50) in data set [2] was 10.8 nM. The same compound yielded a Ki in data set [3] greater than 10000 nM.
